Laboratory results: ChEMBL document CHEMBL3826897, “A facile and rapid access to resveratrol derivatives and their radioprotective activity” (Bioorg Med Chem Lett, 2016)

Key:
[1] = Radioprotective activity in rat thymocytes assessed as radio-modification factor pretreated at 1 uM followed by 2 Gy X-ray irradiation measured after 4 hrs by flow cytometric analysis relative to control; type: ADME, cell-based; conditions: thymocyte
Thymocyte [2] = test: Toxicity in rat thymocytes assessed as increase in cell death at 1 uM measured after 4 hrs by flow cytometric analysis relative to control; type: cell-based
Thymocyte [3] = test: Toxicity in rat thymocytes assessed as increase in cell death at 10 uM measured after 4 hrs by flow cytometric analysis relative to control; type: cell-based
Thymocyte [4] = test: Toxicity in rat thymocytes assessed as increase in cell death at 100 uM measured after 4 hrs by flow cytometric analysis relative to control; type: cell-based
Thymocyte [5] = test: Toxicity in rat thymocytes assessed as increase in cell death at 1000 uM measured after 4 hrs by flow cytometric analysis relative to control; type: cell-based
[6] = Radioprotective activity in rat thymocytes assessed as radio-modification factor pretreated at 10 uM followed by 2 Gy X-ray irradiation measured after 4 hrs by flow cytometric analysis relative to control; type: ADME, cell-based; conditions: thymocyte
[7] = Radioprotective activity in rat thymocytes assessed as radio-modification factor pretreated at 100 uM followed by 2 Gy X-ray irradiation measured after 4 hrs by flow cytometric analysis relative to control; type: ADME, cell-based; conditions: thymocyte
[8] = Radioprotective activity in rat thymocytes assessed as radio-modification factor pretreated at 1000 uM followed by 2 Gy X-ray irradiation measured after 4 hrs by flow cytometric analysis relative to control; type: ADME, cell-based; conditions: thymocyte
[9] = Stability of the compound; type: physicochemical

Row | SMILES | Ratio [1] | Ratio (Thymocyte [2]) | Ratio (Thymocyte [3]) | Ratio (Thymocyte [4]) | Ratio (Thymocyte [5]) | Ratio [6] | Ratio [7] | Ratio [8] | Stability [9]
1 | Oc1ccc(/C=C/c2cc(O)ccc2O)cc1 | 1.7 | < 5 | > 10 | > 10 | > 10 |  |  |  | 
2 | COc1ccc(/C=C/c2ccc(OC)c(OC)c2)cc1OC | 0.4 | < 5 | < 5 | 5 | 5 | 1 | 0.4 | 0.3 | 
3 | Cc1ccc(/C=C/c2cc(O)cc(O)c2)cc1 | 0.94 | < 5 | < 5 | > 10 | < 5 | 1.06 | 0.11 |  | 
4 | COc1cccc(/C=C/c2cc(OC)cc(OC)c2)c1 | 1.4 | < 5 | < 5 | < 5 | < 5 | 1.2 | 1.1 | 0.2 | 
5 | COc1cc(/C=C/c2ccc(NC(C)=O)cc2)cc(OC)c1 | 1.25 | < 5 | < 5 | < 5 | < 5 | 1.21 | 0.99 | 1.05 | 
6 | CC(=O)Nc1ccc(/C=C/c2cc(O)cc(O)c2)cc1 |  |  |  |  |  |  |  |  | Unstable
7 | Oc1cc(O)cc(/C=C/c2ccc(F)cc2)c1 | 0.89 | < 5 | < 5 | < 5 | > 10 | 0.81 | -0.22 |  | 
8 | COc1cc(/C=C/c2ccc(OC(C)=O)cc2)cc(OC)c1 | 0.99 | < 5 | 5 | 5 | 5 | 0.86 | 0.52 | 0.07 | 
9 | CC(=O)Oc1ccc(/C=C/c2cc(O)cc(O)c2)cc1 | 1.14 | < 5 | < 5 | < 5 | > 10 | 1.01 | 0.91 |  | 
10 | COc1ccc(/C=C/c2ccccc2OC)cc1 | 1.3 | < 5 | < 5 | < 5 | 5 | 1.3 | -0.2 | 0.2 | 
11 | Oc1ccc(/C=C/c2ccccc2O)cc1 | 0.4 | 5 | < 5 | 5 | > 10 | 0.7 | 0.5 |  | 
12 | Oc1ccc(/C=C/c2ccc(O)c(O)c2)cc1 | 2.2 | < 5 | < 5 | < 5 | > 10 | 1.3 | -0.3 |  | 
13 | COc1ccc(/C=C/c2cc(OC)ccc2OC)cc1 | 0.7 | < 5 | < 5 | < 5 | < 5 | 1.2 | 0.9 | 0.7 | 
14 | COc1cc(/C=C/c2ccc(F)cc2)cc(OC)c1 | 1.34 | < 5 | < 5 | > 10 | > 10 | 1.26 |  |  | 
15 | COc1cc(/C=C/c2ccc(C)cc2)cc(OC)c1 |  |  |  |  |  |  |  |  | Unstable
16 | Oc1cc(O)cc(/C=C/c2ccc(Cl)cc2)c1 | 0.56 | 5 | 5 | > 10 | > 10 | 0.47 |  |  | 

Row | SMILES | Ratio [1] | Ratio (Thymocyte [2]) | Ratio (Thymocyte [3]) | Ratio (Thymocyte [4]) | Ratio (Thymocyte [5]) | Ratio [6] | Ratio [7] | Ratio [8] | Stability [9]
17 | Oc1cccc(/C=C/c2cc(O)cc(O)c2)c1 | 0.9 | < 5 | < 5 | < 5 | > 10 | 0.9 | 0.3 |  | 
18 | COc1ccc(/C=C/c2ccc(OC)cc2)cc1 | 1.1 | < 5 | < 5 | < 5 | < 5 | 1 | 1.3 | 1.5 | 
19 | Oc1cc(O)cc(/C=C/c2ccccc2O)c1 | 1.2 | < 5 | < 5 | < 5 | > 10 | 1.3 | 0.4 |  | 
20 | Nc1ccc(/C=C/c2cc(O)cc(O)c2)cc1 |  |  |  |  |  |  |  |  | Unstable
21 | COc1ccc(/C=C/c2cc(OC)cc(OC)c2)cc1 [TRISMETHOXYRESVERATROL] | 0.82 | < 5 | < 5 | < 5 | 5 | 0.85 | 0.31 | -0.15 | 
22 | Oc1ccc(/C=C/c2cc(O)cc(O)c2)cc1 [RESVERATROL] | 0.93 | < 5 | < 5 | < 5 | < 5 | 1.06 | 0.59 | -0.34 | 
23 | COc1cc(/C=C/c2ccc(Cl)cc2)cc(OC)c1 |  |  |  |  |  |  |  |  | Unstable
24 | Oc1ccc(/C=C/c2ccc(O)cc2)cc1 [TRANS-4,4'-DIHYDROXYSTILBENE] | 0.6 | < 5 | < 5 | < 5 | < 5 | 1.1 | 1.2 | 1.1 | 
25 | COc1ccc(/C=C/c2cccc(OC)c2)cc1 | 1 | < 5 | < 5 | < 5 | < 5 | 1.1 | 1.1 | 1.5 | 
26 | COc1ccc(/C=C/c2ccc(OC)c(OC)c2)cc1 | 0.8 | < 5 | < 5 | < 5 | 5 | 1 | 0.7 | 0.5 | 
27 | Oc1ccc(/C=C/c2cccc(O)c2)cc1 [(E)-3,4'-STILBENDIOL] | 1.4 | < 5 | < 5 | < 5 | < 5 | 1.2 | 1.6 | 0.6 | 
28 | Oc1ccc(/C=C/c2ccc(O)c(O)c2)cc1O |  |  |  |  |  |  |  |  | Unstable
29 | Oc1cc(O)cc(/C=C/c2ccccc2)c1 [PINOSYLVIN] |  |  |  |  |  |  |  |  | Unstable
30 | COc1cc(/C=C/c2ccccc2)cc(OC)c1 [3,5-O-DIMETHYLPINOSYLVIN] |  |  |  |  |  |  |  |  | Unstable
31 | COc1cc(/C=C/c2ccccc2OC)cc(OC)c1 | 0.8 | < 5 | < 5 | < 5 | 5 | 0.6 | 0.3 | 0.1 | 
